Among the data in US20250215012A1, “IKZF2 DEGRADERS AND USES THEREOF” (REGENTS OF THE UNIVERSITY OF MICHIGAN, priority 2022, published 2025) are DC50 and Dmax values, retold here.

The target of this assay is IKZF2 (Homo sapiens (Human), UniProt Q96SW2+Q9UKS7). Nature of the assay: IKZF2 HiBiT Assay (Jurkat-IKZF2-HiBiT cell line). The format is cell-based. As to conditions: Jurkat-IKZF2-HiBiT cells, 24 hours; for DC50: read-out: HiBit assay degradation analysis DC50; for Dmax: read-out: HiBit assay degradation analysis Dmax. The gist of the method:
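IKZF2 degradation was assessed as HiBiT luminescence in Jurkat-IKZF2-HiBiT cells, using lytic detection after 24 h of compound treatment at 37 °C, 5% CO2.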

Structures are written as SMILES.

Sequence of IKZF2 (Q9UKS7 whole entry): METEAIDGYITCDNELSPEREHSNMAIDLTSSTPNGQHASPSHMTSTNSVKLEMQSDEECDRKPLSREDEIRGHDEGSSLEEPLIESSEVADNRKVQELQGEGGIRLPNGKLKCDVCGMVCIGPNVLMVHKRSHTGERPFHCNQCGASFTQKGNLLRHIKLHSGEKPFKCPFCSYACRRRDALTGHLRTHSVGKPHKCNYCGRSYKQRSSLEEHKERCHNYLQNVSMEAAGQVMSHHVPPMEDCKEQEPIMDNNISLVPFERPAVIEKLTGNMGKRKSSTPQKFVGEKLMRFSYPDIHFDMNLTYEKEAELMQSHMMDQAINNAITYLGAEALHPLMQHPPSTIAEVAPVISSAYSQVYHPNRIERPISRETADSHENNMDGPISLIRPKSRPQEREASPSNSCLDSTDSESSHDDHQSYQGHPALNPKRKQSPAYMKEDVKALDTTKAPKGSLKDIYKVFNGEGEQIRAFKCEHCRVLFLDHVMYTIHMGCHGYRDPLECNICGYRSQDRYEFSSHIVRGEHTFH
Sequence of IKZF2 (Q96SW2 whole entry): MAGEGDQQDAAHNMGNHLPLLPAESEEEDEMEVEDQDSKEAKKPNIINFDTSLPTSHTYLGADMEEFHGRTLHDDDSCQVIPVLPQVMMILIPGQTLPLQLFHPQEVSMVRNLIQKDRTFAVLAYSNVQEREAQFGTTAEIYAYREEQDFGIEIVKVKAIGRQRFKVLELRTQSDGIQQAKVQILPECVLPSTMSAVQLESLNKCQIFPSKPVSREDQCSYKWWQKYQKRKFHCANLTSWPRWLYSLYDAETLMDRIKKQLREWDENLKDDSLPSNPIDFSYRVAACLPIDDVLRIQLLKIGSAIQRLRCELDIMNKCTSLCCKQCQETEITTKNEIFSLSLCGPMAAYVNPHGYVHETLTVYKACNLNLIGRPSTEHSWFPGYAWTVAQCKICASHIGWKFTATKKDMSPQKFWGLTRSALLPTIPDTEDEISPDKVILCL
Sequence of IKZF2 (Q16531 whole entry partner): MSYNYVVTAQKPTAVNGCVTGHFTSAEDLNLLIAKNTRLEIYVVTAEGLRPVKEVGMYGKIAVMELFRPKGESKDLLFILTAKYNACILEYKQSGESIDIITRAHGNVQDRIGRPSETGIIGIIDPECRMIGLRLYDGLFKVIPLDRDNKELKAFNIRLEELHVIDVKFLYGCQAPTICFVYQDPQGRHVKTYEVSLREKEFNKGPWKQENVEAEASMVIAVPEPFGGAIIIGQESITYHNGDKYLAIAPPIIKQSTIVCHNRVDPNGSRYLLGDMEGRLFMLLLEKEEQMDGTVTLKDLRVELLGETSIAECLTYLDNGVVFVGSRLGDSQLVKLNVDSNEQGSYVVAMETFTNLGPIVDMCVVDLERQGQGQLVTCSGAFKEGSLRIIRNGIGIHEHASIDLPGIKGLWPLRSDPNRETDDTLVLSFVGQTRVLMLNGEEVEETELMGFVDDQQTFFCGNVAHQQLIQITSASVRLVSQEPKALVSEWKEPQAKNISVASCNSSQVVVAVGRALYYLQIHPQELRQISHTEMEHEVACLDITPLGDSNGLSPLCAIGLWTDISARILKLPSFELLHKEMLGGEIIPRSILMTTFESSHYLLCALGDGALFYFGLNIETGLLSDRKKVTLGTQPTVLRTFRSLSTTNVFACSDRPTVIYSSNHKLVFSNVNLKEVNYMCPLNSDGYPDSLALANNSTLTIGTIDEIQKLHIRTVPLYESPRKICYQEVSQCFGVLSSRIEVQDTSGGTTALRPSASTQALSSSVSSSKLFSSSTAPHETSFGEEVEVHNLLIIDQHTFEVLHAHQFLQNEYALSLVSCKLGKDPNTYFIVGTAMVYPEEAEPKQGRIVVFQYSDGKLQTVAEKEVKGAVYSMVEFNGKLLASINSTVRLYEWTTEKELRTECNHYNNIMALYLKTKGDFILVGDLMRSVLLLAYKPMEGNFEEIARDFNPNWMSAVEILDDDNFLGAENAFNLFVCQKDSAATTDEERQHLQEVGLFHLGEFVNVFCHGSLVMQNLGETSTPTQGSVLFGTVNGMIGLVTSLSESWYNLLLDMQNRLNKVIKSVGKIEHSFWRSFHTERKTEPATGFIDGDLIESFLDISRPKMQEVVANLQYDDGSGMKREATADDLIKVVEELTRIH

Turning to `O=C1CC[C@H](N2Cc3c(ccc4c3OCC43CCN(C[C@@H]4C[C@H]4c4ccc(F)cc4)CC3)C2=O)C(=O)N1` [Compound A362, (S)-3-(1′-(((1R,2R)-2-(4-fluorophenyl)cyclopropyl)methyl)-6-oxo-6,8-dihydro-2H,7H-spiro[furo[2,3-e]isoindole-3,4′-piperidin]-7-yl)piperidine-2,6-dione], the DC50 (as a rule, the midpoint of the concentration-degradation curve) was more than 500 nM and the Dmax – broadly, the largest share of the target that was removed – lay within 40 to 60%.

Consider `O=C1CCC(N2Cc3c(ccc4c3OCC43CCN(Cc4ccsc4)CC3)C2=O)C(=O)N1` (stereo not drawn) [Compound A183, 3-(6-oxo-1′-(thiophen-3-ylmethyl)-6,8-dihydro-2H,7H-spiro[furo[2,3-e]isoindole-3,4′-piperidin]-7-yl)piperidine-2,6-dione], for which the DC50 lay in the range of 200 to 500 nM and the Dmax lay in the range of 40 to 60%.

As to `CN(C)S(=O)(=O)c1ccc(CN2CCC3(CC2)COc2c3ccc3c2CN(C2CCC(=O)NC2=O)C3=O)cc1` (stereo not drawn) [Compound A210, 4-((7-(2,6-dioxopiperidin-3-yl)-6-oxo-7,8-dihydro-2H,6H-spiro[furo[2,3-e]isoindole-3,4′-piperidin]-1′-yl)methyl)-N,N-dimethylbenzenesulfonamide], the DC50 was more than 500 nM and the Dmax was less than 40%.

As to `O=C1CCC(N2Cc3c(ccc4c3OCC43CCN(CC4CCCCC4)CC3)C2=O)C(=O)N1` (stereo not drawn) [Compound A7, 3-(1′-(cyclohexylmethyl)-6-oxo-6,8-dihydro-2H,7H-spiro[furo[2,3-e]isoindoline-3,4′-piperidin]-7-yl)piperidine-2,6-dione], the DC50 was more than 500 nM and the Dmax is less than 40%.

Take `Cn1cc2ccc(CN3CCC4(CC3)COc3c4ccc4c3CN([C@H]3CCC(=O)NC3=O)C4=O)cc2n1` [Compound A169, (S)-3-(1′-((2-methyl-2H-indazol-6-yl)methyl)-6-oxo-6,8-dihydro-2H,7H-spiro[furo[2,3-e]isoindole-3,4′-piperidin]-7-yl)piperidine-2,6-dione]: the DC50 was less than 50 nM and the Dmax was in the range of 60 to 80%.

For `Cc1cc(CN2CCC3(CC2)COc2c3ccc3c2CN([C@H]2CCC(=O)NC2=O)C3=O)cc(-c2cnn(C3COC3)c2)c1` [Compound A279, (S)-3-(1′-(3-methyl-5-(1-(oxetan-3-yl)-1H-pyrazol-4-yl)benzyl)-6-oxo-6,8-dihydro-2H,7H-spiro[furo[2,3-e]isoindole-3,4′-piperidin]-7-yl)piperidine-2,6-dione], the half-maximal degradation concentration (DC50) is less than 50 nM and the Dmax was 60 to 80%.

With `O=C1CC[C@H](N2Cc3c(ccc4c3OCC43CCN(Cc4ccc5cn(C6COC6)nc5c4)CC3)C2=O)C(=O)N1` [Compound A285, (S)-3-(1′-((2-(oxetan-3-yl)-2H-indazol-6-yl)methyl)-6-oxo-6,8-dihydro-2H,7H-spiro[furo[2,3-e]isoindole-3,4′-piperidin]-7-yl)piperidine-2,6-dione], the DC50 was less than 50 nM and the Dmax lay in the range of 60 to 80%.

Take `O=C1CCC(N2Cc3c(ccc4c3OCC43CCN(Cc4cc(F)cc5cc[nH]c45)CC3)C2=O)C(=O)N1` (stereo not drawn) [Compound A110, 3-(1′-((5-fluoro-1H-indol-7-yl)methyl)-6-oxo-6,8-dihydro-2H,7H-spiro[furo[2,3-e]isoindole-3,4′-piperidin]-7-yl)piperidine-2,6-dione]: the DC50 was less than 50 nM and the Dmax was more than 80%.

Regarding `O=C1CCC(N2Cc3c(ccc4c3OCC43CCN(Cc4ccc5cnccc5c4)CC3)C2=O)C(=O)N1` (stereo not drawn) [Compound A65, 3-(1′-(isoquinolin-6-ylmethyl)-6-oxo-6,8-dihydro-2H,7H-spiro[furo[2,3-e]isoindole-3,4′-piperidin]-7-yl)piperidine-2,6-dione], the DC50 was more than 500 nM and the greatest degradation seen (Dmax) fell in the range of 40 to 60%.

For the compound `O=C1CCC(N2Cc3c(ccc4c3OCCC43CCN(Cc4ccccc4)CC3)C2=O)C(=O)N1` (stereo not drawn) [Compound A13, 3-(1-benzyl-7′-oxo-2′,3′,7′,9′-tetrahydro-8′H-spiro[piperidine-4,4′-pyrano[2,3-e]isoindol]-8′-yl)piperidine-2,6-dione], the DC50 is more than 500 nM and the Dmax is less than 40%.

`CS(=O)(=O)c1ccccc1CN1CCC2(CC1)COc1c2ccc2c1CN(C1CCC(=O)NC1=O)C2=O` (stereo not drawn) [Compound A234, 3-(1′-(2-(methylsulfonyl)benzyl)-6-oxo-6,8-dihydro-2H,7H-spiro[furo[2,3-e]isoindole-3,4′-piperidin]-7-yl)piperidine-2,6-dione]: the half-maximal degradation concentration (DC50) is more than 500 nM and the Dmax was less than 40%.

In the case of `CC(C)(O)c1ccc(CN2CCC3(CC2)COc2c3ccc3c2CN(C2CCC(=O)NC2=O)C3=O)cc1` (stereo not drawn) [Compound A200, 3-(1′-(4-(2-hydroxypropan-2-yl)benzyl)-6-oxo-6,8-dihydro-2H,7H-spiro[furo[2,3-e]isoindole-3,4′-piperidin]-7-yl)piperidine-2,6-dione], the DC50 was more than 500 nM and the Dmax was less than 40%.

Consider `O=C1CCC(N2Cc3c(ccc4c3OCC43CCN(Cc4cccc(CF)c4)CC3)C2=O)C(=O)N1` (stereo not drawn) [Compound A93, 3-(1′-(3-(fluoromethyl)benzyl)-6-oxo-6,8-dihydro-2H,7H-spiro[furo[2,3-e]isoindole-3,4′-piperidin]-7-yl)piperidine-2,6-dione], for which the DC50 was 50 to 200 nM and the Dmax fell in the range of 60 to 80%.

`O=C1CCC(N2Cc3c(ccc4c3OCC43CCN(Cc4cccc5ccnn45)CC3)C2=O)C(=O)N1` (stereo not drawn) [Compound A76, 3-(6-oxo-1′-(pyrazolo[1,5-]pyridin-7-ylmethyl)-6,8-dihydro-2H,7H-spiro[furo[2,3-e]isoindole-3,4′-piperidin]-7-yl)piperidine-2,6-dione]: the 50% degradation concentration (DC50) is more than 500 nM and the maximal degradation (Dmax) was less than 40%.

In the case of `O=C1CCC(N2Cc3c(ccc4c3OCC43CCN(Cc4ccc(OCc5ccccc5)nc4)CC3)C2=O)C(=O)N1` (stereo not drawn) [Compound A339, 3-(1′-((6-(benzyloxy)pyridin-3-yl)methyl)-6-oxo-6,8-dihydro-2H,7H-spiro[furo[2,3-e]isoindole-3,4′-piperidin]-7-yl)piperidine-2,6-dione], the DC50 is more than 500 nM and the Dmax was 40 to 60%.

Turning to `CC(C)(C)c1cccc(CN2CCC3(CC2)COc2c3ccc3c2CN(C2CCC(=O)NC2=O)C3=O)c1` (stereo not drawn) [Compound A88, 3-(1′-(3-(tert-butyl)benzyl)-6-oxo-6,8-dihydro-2H,7H-spiro[furo[2,3-e]isoindole-3,4′-piperidin]-7-yl)piperidine-2,6-dione], the DC50 is more than 500 nM and the greatest degradation seen (Dmax) was less than 40%.

As for `COCCn1cc(-c2cccc(CN3CCC4(CC3)COc3c4ccc4c3CN([C@H]3CCC(=O)NC3=O)C4=O)c2)cn1` [Compound A286, (S)-3-(1′-(3-(1-(2-methoxyethyl)-1H-pyrazol-4-yl)benzyl)-6-oxo-6,8-dihydro-2H,7H-spiro[furo[2,3-e]isoindole-3,4′-piperidin]-7-yl)piperidine-2,6-dione], the half-maximal degradation concentration (DC50) lay within 50 to 200 nM and the Dmax lay within 60 to 80%.

In the case of `O=C1CCC(N2Cc3c(ccc4c3OCC43CCN(Cc4cnn(-c5ccccc5F)c4)CC3)C2=O)C(=O)N1` (stereo not drawn) [Compound A310, 3-(1′-((1-(2-fluorophenyl)-1H-pyrazol-4-yl)methyl)-6-oxo-6,8-dihydro-2H,7H-spiro[furo[2,3-e]isoindole-3,4′-piperidin]-7-yl)piperidine-2,6-dione], the DC50 is more than 500 nM and the Dmax was less than 40%.
